Measured values taken from PubChem BioAssay AID1918930 (Molecular Pharmacology Branch, DTP, NCI, 2023).
“And” between values parts separate entries of the source, which are not always exact repeats. Equal values may be shown once. Each block holds one molecule with its values, some of them ahead of it.

System: 233499-124-R-J3-PDC complex spheroid viability, % test/control
Test: Anticancer human tumor 233499-124-R-J3-PDC patient-derived colon adenocarcinoma cell line growth inhibition
Conditions: for viability, T/C: stronger effect = lower value
Procedure, shortened: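 Complex spheroids of tumor cells with HUVEC and human MSCs, exposed to iadademstat combined with other agents. Each agent tested in half-log steps from near clinical Cmax (else 10 microM top), DMSO ≤0.25%.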

[1] = curve of first compound, second compound 0.1 µM
[2] = curve of first compound, second compound 0.316 µM
[3] = curve of first compound, second compound 1 µM
[4] = curve of first compound, second compound 3.16 µM
[5] = curve of first compound, second compound 10 µM
[6] = second compound 0.1 µM, first compound 0.0316 µM
[7] = second compound 0.1 µM, first compound 0.1 µM
[8] = second compound 0.1 µM, first compound 0.316 µM
[9] = second compound 0.1 µM, first compound 1 µM
[10] = second compound 0.1 µM, first compound 3.16 µM
[11] = second compound 0.1 µM, first compound 10 µM
[12] = second compound 0.316 µM, first compound 0.0316 µM
[13] = second compound 0.316 µM, first compound 0.1 µM
[14] = second compound 0.316 µM, first compound 0.316 µM
[15] = second compound 0.316 µM, first compound 1 µM
[16] = second compound 0.316 µM, first compound 3.16 µM
[17] = second compound 0.316 µM, first compound 10 µM
[18] = second compound 1 µM, first compound 0.0316 µM
[19] = second compound 1 µM, first compound 0.1 µM
[20] = second compound 1 µM, first compound 0.316 µM
[21] = second compound 1 µM, first compound 1 µM
[22] = second compound 1 µM, first compound 3.16 µM
[23] = second compound 1 µM, first compound 10 µM
[24] = second compound 3.16 µM, first compound 0.0316 µM
[25] = second compound 3.16 µM, first compound 0.1 µM
[26] = second compound 3.16 µM, first compound 0.316 µM
[27] = second compound 3.16 µM, first compound 1 µM
[28] = second compound 3.16 µM, first compound 3.16 µM
[29] = second compound 3.16 µM, first compound 10 µM
[30] = second compound 10 µM, first compound 0.0316 µM
[31] = second compound 10 µM, first compound 0.1 µM
[32] = second compound 10 µM, first compound 0.316 µM
[33] = second compound 10 µM, first compound 1 µM
[34] = second compound 10 µM, first compound 3.16 µM
[35] = second compound 10 µM, first compound 10 µM
[36] = second compound 0.1 µM, first compound 0.00949 µM
[37] = second compound 0.1 µM, first compound 0.03 µM
[38] = second compound 0.1 µM, first compound 0.0949 µM
[39] = second compound 0.1 µM, first compound 0.3 µM
[40] = second compound 0.316 µM, first compound 0.00949 µM
[41] = second compound 0.316 µM, first compound 0.03 µM
[42] = second compound 0.316 µM, first compound 0.0949 µM
[43] = second compound 0.316 µM, first compound 0.3 µM
[44] = second compound 1 µM, first compound 0.00949 µM
[45] = second compound 1 µM, first compound 0.03 µM
[46] = second compound 1 µM, first compound 0.0949 µM
[47] = second compound 1 µM, first compound 0.3 µM
[48] = second compound 3.16 µM, first compound 0.00949 µM
[49] = second compound 3.16 µM, first compound 0.03 µM
[50] = second compound 3.16 µM, first compound 0.0949 µM
[51] = second compound 3.16 µM, first compound 0.3 µM
[52] = second compound 10 µM, first compound 0.00949 µM
[53] = second compound 10 µM, first compound 0.03 µM
[54] = second compound 10 µM, first compound 0.0949 µM
[55] = second compound 10 µM, first compound 0.3 µM
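Also: spheroids exposed to agents for one week before readout.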

IC50 (curve of compound): > 100 nM
Structure (SMILES): CC[C@@]1(O)C(=O)OCc2c1cc1n(c2=O)Cc2cc3c(CN(C)C)c(O)ccc3nc2-1
viability, T/C (compound 0.000316 µM): 79.7% and 94.3%
viability, T/C (compound 0.001 µM): 70% and 85.8%
viability, T/C (compound 0.00316 µM): 63.5% and 72.9%
viability, T/C (compound 0.01 µM): 51.6% and 62.8%
viability, T/C (compound 0.0316 µM): 70% and 69.2%
viability, T/C (compound 0.1 µM): 94.3% and 109%

IC50 (curve of compound): > 10000 nM
Structure (SMILES): O=C(c1cc(Cc2n[nH]c(=O)c3ccccc23)ccc1F)N1CCN(C(=O)C2CC2)CC1
viability, T/C (compound 0.0316 µM): 91.1% and 97.1%
viability, T/C (compound 0.1 µM): 92.6% and 76.9%
viability, T/C (compound 0.316 µM): 113% and 88.8%
viability, T/C (compound 1 µM): 97.3% and 90.8%
viability, T/C (compound 3.16 µM): 76.1% and 75.5%
viability, T/C (compound 10 µM): 80.3% and 84.2%

IC50 (curve of compound): 637 nM and 401 nM
Structure (SMILES): Nc1ccccc1NC(=O)c1ccc(CNC(=O)OCc2cccnc2)cc1
viability, T/C (compound 0.00949 µM): 90.9% and 83.5%
viability, T/C (compound 0.03 µM): 101% and 93.5%
viability, T/C (compound 0.0949 µM): 84.8% and 81%
viability, T/C (compound 0.3 µM): 90% and 63.2%
viability, T/C (compound 0.949 µM): 28.9% and 12.3%
viability, T/C (compound 3 µM): 4.68% and 3.17%

The remaining lines, values behind:

Structure (SMILES): O=C(C=Cc1cccc(S(=O)(=O)Nc2ccccc2)c1)NO
viability, T/C (compound 0.00949 µM): 93.1% and 104%
viability, T/C (compound 0.03 µM): 116% and 98.3%
viability, T/C (compound 0.0949 µM): 128% and 104%
viability, T/C (compound 0.3 µM): 141% and 98.9%
viability, T/C (compound 0.949 µM): 26.7% and 9.27%
viability, T/C (compound 3 µM): 96.4% and 90.1%
IC50 (curve of compound): 3000 nM and > 3000 nM

Structure (SMILES): CC(C)CC(NC(=O)C(Cc1ccccc1)NC(=O)c1cnccn1)B(O)O (centres undefined)
viability, T/C (compound 0.000316 µM): 96% and 81.8%
viability, T/C (compound 0.00316 µM): 21.4% and 0.26%
viability, T/C (compound 0.01 µM): 7.18% and 0.25%
viability, T/C (compound 0.0316 µM): 5.21% and 0.25%
viability, T/C (compound 0.1 µM): 3.6% and 0.35%
IC50 (curve of compound): 2.07 nM and 0.496 nM

Structure (SMILES): CC1(C)CCC(CN2CCN(c3ccc(C(=O)NS(=O)(=O)c4ccc(NCC5CCOCC5)c([N+](=O)[O-])c4)c(Oc4cnc5[nH]ccc5c4)c3)CC2)=C(c2ccc(Cl)cc2)C1 + NC1CCC(NC2CC2c2ccccc2)CC1
IC50 [1]: 7560 nM
IC50 [2]: 6460 nM
IC50 [3]: 9010 nM
IC50 [4]: 7550 nM
IC50 [5]: 7290 nM
viability, T/C [6]: 119%
viability, T/C [7]: 127%
viability, T/C [8]: 132%
viability, T/C [9]: 116%
viability, T/C [10]: 143%
viability, T/C [11]: 25.2%
viability, T/C [12]: 111%
viability, T/C [13]: 109%
viability, T/C [14]: 114%
viability, T/C [15]: 105%
viability, T/C [16]: 132%
viability, T/C [17]: 10.5%
viability, T/C [18]: 95.7%
viability, T/C [19]: 91.2%
viability, T/C [20]: 97.8%
viability, T/C [21]: 104%
viability, T/C [22]: 118%
viability, T/C [23]: 44.8%
viability, T/C [24]: 88.8%
viability, T/C [25]: 99.8%
viability, T/C [26]: 83%
viability, T/C [27]: 98.9%
viability, T/C [28]: 96.6%
viability, T/C [29]: 36%
viability, T/C [30]: 87.4%
viability, T/C [31]: 86.5%
viability, T/C [32]: 85.2%
viability, T/C [33]: 93.1%
viability, T/C [34]: 101%
viability, T/C [35]: 34.5%

Structure (SMILES): Nc1ncn(C2CC(O)C(CO)S2)c(=O)n1 (centres undefined) + NC1CCC(NC2CC2c2ccccc2)CC1
IC50 [1]: 123 nM
IC50 [2]: 76.1 nM
IC50 [3]: 56.9 nM
IC50 [4]: 73.9 nM
IC50 [5]: 63.2 nM
viability, T/C (second compound 0.1 µM, first compound 0.000949 µM): 110%
viability, T/C (second compound 0.1 µM, first compound 0.003 µM): 85.6%
viability, T/C [36]: 113%
viability, T/C [37]: 88.1%
viability, T/C [38]: 61.4%
viability, T/C [39]: 13.1%
viability, T/C (second compound 0.316 µM, first compound 0.000949 µM): 113%
viability, T/C (second compound 0.316 µM, first compound 0.003 µM): 107%
viability, T/C [40]: 117%
viability, T/C [41]: 93.9%
viability, T/C [42]: 39.7%
viability, T/C [43]: 11.6%
viability, T/C (second compound 1 µM, first compound 0.000949 µM): 94.3%
viability, T/C (second compound 1 µM, first compound 0.003 µM): 88.6%
viability, T/C [44]: 91.2%
viability, T/C [45]: 76.8%
viability, T/C [46]: 28.6%
viability, T/C [47]: 27.4%
viability, T/C (second compound 3.16 µM, first compound 0.000949 µM): 97.4%
viability, T/C (second compound 3.16 µM, first compound 0.003 µM): 99.9%
viability, T/C [48]: 92%
viability, T/C [49]: 89%
viability, T/C [50]: 39.2%
viability, T/C [51]: 24.9%
viability, T/C (second compound 10 µM, first compound 0.000949 µM): 86.6%
viability, T/C (second compound 10 µM, first compound 0.003 µM): 82.4%
viability, T/C [52]: 86.8%
viability, T/C [53]: 82.8%
viability, T/C [54]: 32.1%
viability, T/C [55]: 23.6%

Structure (SMILES): CC1(C)CCC(CN2CCN(c3ccc(C(=O)NS(=O)(=O)c4ccc(NCC5CCOCC5)c([N+](=O)[O-])c4)c(Oc4cnc5[nH]ccc5c4)c3)CC2)=C(c2ccc(Cl)cc2)C1 + NC1CC1c1ccc(-c2cccc(O)c2)cc1
IC50 [1]: 2680 nM
IC50 [2]: 2450 nM
IC50 [3]: 3180 nM
IC50 [4]: 2810 nM
IC50 [5]: 2270 nM
viability, T/C [6]: 84.1%
viability, T/C [7]: 109%
viability, T/C [8]: 113%
viability, T/C [9]: 107%
viability, T/C [10]: 41.1%
viability, T/C [11]: 0.86%
viability, T/C [12]: 114%
viability, T/C [13]: 102%
viability, T/C [14]: 100%
viability, T/C [15]: 111%
viability, T/C [16]: 33.9%
viability, T/C [17]: 0.83%
viability, T/C [18]: 88.7%
viability, T/C [19]: 92%
viability, T/C [20]: 97.8%
viability, T/C [21]: 102%
viability, T/C [22]: 50.2%
viability, T/C [23]: 0.7%
viability, T/C [24]: 100%
viability, T/C [25]: 97.1%
viability, T/C [26]: 91.4%
viability, T/C [27]: 99.3%
viability, T/C [28]: 44.6%
viability, T/C [29]: 0.57%
viability, T/C [30]: 76.7%
viability, T/C [31]: 83.9%
viability, T/C [32]: 72.9%
viability, T/C [33]: 81.1%
viability, T/C [34]: 38.5%
viability, T/C [35]: 0.43%

Structure (SMILES): NS(=O)(=O)OCC1CC(n2ccc3c(NC4CCc5ccccc54)ncnc32)CC1O (centres undefined) + NC1CCC(NC2CC2c2ccccc2)CC1
IC50 [1]: 108 nM
IC50 [2]: 88.8 nM
IC50 [3]: 47.5 nM
IC50 [4]: 49.6 nM
IC50 [5]: 54.1 nM
viability, T/C [36]: 106%
viability, T/C [37]: 95.7%
viability, T/C [38]: 55.9%
viability, T/C [39]: 9.71%
viability, T/C (second compound 0.1 µM, first compound 0.949 µM): 11.5%
viability, T/C (second compound 0.1 µM, first compound 3 µM): 9.68%
viability, T/C [40]: 90.8%
viability, T/C [41]: 70%
viability, T/C [42]: 53.4%
viability, T/C [43]: 9.15%
viability, T/C (second compound 0.316 µM, first compound 0.949 µM): 6.44%
viability, T/C (second compound 0.316 µM, first compound 3 µM): 7.69%
viability, T/C [44]: 90.7%
viability, T/C [45]: 55.9%
viability, T/C [46]: 43.2%
viability, T/C [47]: 12%
viability, T/C (second compound 1 µM, first compound 0.949 µM): 11.3%
viability, T/C (second compound 1 µM, first compound 3 µM): 6.96%
viability, T/C [48]: 102%
viability, T/C [49]: 62.9%
viability, T/C [50]: 34.5%
viability, T/C [51]: 10.7%
viability, T/C (second compound 3.16 µM, first compound 0.949 µM): 7.04%
viability, T/C (second compound 3.16 µM, first compound 3 µM): 1.91%
viability, T/C [52]: 89.9%
viability, T/C [53]: 66.2%
viability, T/C [54]: 33.4%
viability, T/C [55]: 19%
viability, T/C (second compound 10 µM, first compound 0.949 µM): 5.43%
viability, T/C (second compound 10 µM, first compound 3 µM): 3.7%
